# Data reported in patent publication US20180117171A1, “IMMUNOCONJUGATES FOR PROGRAMMING OR REPROGRAMMING OF CELLS” (President and Fellows of Harvard College, priority 2015, published 2018).
# Where no end group is shown, it is not given here.
# What was measured:
# [1] = system: bone marrow derived dendritic cells (BMDCs); assay: antigen presentation of […]-MPS conjugate by BMDCs (flow cytometry); format: cell-based; conditions: 18 hours, versus peptide adsorbed to MPS
# From the text: FIG. 53 is a pair of graphs evaluating the antigen presentation of […] (SEQ ID NO: 18)-MPS conjugate. […] Percentage of BMDCs presenting the peptide was quantified using flow cytometry.
# [2] = system: mononuclear cells isolated from the bone marrow; assay: DC induced in vitro from bone marrow cells with GM-CSF with or without TSLP, VIP or TGF-β; format: cell-based, C57BL/6 mice; conditions: for expression of IL-6 and IL-12: GM-CSF in the presence of factor, bacterial stimulation, compared to GM-CSF alone; for CD11c+/CD86+ in total BM cells: 7 day incubation
# From the text: The surface phenotypes of CD11c+DC in the BM culture were monitored by flow cytometry and the proportionality of each phenotype is expressed as a percent (%) of the total mononuclear cells (MNC) (FIG. 5, Table 1).
# The present invention provides for a material-based local application of GM-CSF with appropriate DC influencing factors that leads to tolerogenic DCs (tDCs), and subsequent enrichment of iTreg cells. Candidate biofactors include thymic stromal lymphopoietin (TSLP), vasoactive intestinal peptide (VIP), and transforming growth factor-beta (TGF-β). Screening is based on the induced DC's anti-inflammatory properties. […] Overall, these observations that the combination of GM-CSF with TSLP efficiently induces DC with an anti-inflammatory phenotype.
# [3] = system: CD4+ T cells from OT-II mice; assay: CD4 T cell proliferation with peptide-MPS stimulated BMDCs; format: cell-based; conditions: compared to peptide stimulation only
# From the text: FIG. 54A-C are a set of graphs showing the effect of peptide-MPS conjugates on CD4 T cell proliferation, as evaluated in vitro. BMDCs were stimulated with […] (peptide) (SEQ ID NO: 19), […] (SEQ ID NO: 19) conjugated to MPS through SMCC (SMCC), and […] BMDCs were then washed thoroughly and co-cultured with CD4^+ T cells from OT-II mice. OT-II mice are enriched for CD4^+ T cells recognizing the […] (SEQ ID NO: 20) peptide.
# B3Z T cell line [4] = assay: B3Z cell: DC co-culture, CPRG assay; format: cell-based; conditions: antigen concentrations greater than 10 nM
# Procedure: (§1) 15 hours later, the cells were fixed and stained with X-gal (Imgenix) according to the manufacturer's instructions. The cells were photographed at 10× magnification using a standard bright field microscope. A similar protocol was followed for the chlorophenol […] staining assay (Imgenix), except that after 15 hours, the cells were washed and lysed in a chlorophenol red-β-D-galactopyranoside staining buffer. After a 4 hour incubation at 37° C., the absorbance at 590 nm was obtained.
# The cells were then lysed and treated with the β-galactosidase substrate, chlorophenol red-β-D-galactopyranoside (CPRG). After 4 hours of incubation, the absorbance at 590 nm was obtained. Staining was due to β a-galactosidase expression driven by elements of the IL-2 promoter.
# B3Z T cell line [5] = assay: B3Z cell: DC co-culture, X-gal assay; format: cell-based
# Procedure: as §1
# Following a 15 hour co-culture, the cells were fixed, stained with X-gal, and imaged. The images were all obtained at 10× magnification and represent a typical distribution of cells (FIG. 29).
# BMDC [6] = assay: IL-12p70 elaboration from BMDC (ELISA); conditions: 100 nM, LPS 50 ng/ml
# BMDC [7] = assay: MHC II and co-stimulatory molecule surface presentation on BMDC after LPS; format: cell-based, mouse; conditions: 100 nM compound, next day 50 ng/ml LPS; mean ± SD
# Procedure: Day 9 BMDC were harvested from 100 mm diameter plates and seeded into 6 wells of a tissue culture plate in R10 media containing 100 nM dexamethasone or dexamethasone-[…] […] The BD LSR Fortessa was used to analyze the cells. Histograms were created using Flowjo (Tree Star Inc.) and statistical analysis was done using InStat (GraphPad Software).
# [8] = system: primary bone marrow dendritic cells (BMDC); assay: dexamethasone effect on surface markers of bone marrow dendritic cells (FACS); format: cell-based, mouse
# Procedure: Flow cytometry was conducted according to standard protocols. Cells were harvested, washed, and resuspended to a final cell concentration of 1-5 million cells/ml in ice cold phosphate buffered saline (PBS) with 10% fetal bovine serum (FBS) and 1% sodium azide. Anti-mouse antibodies including anti-CD11c, MHC II, CD80, CD86, and OVA 257-264 bound to H-2Kb were then aliquotted according to the manufacturer's recommended dilutions (Ebioscience). During staining, cells were incubated for 20 minutes at room temperature and then 20 minutes on ice. The cells were then washed and kept on ice until analysis. Some samples were fixed in 1% paraformaldehyde (PFA) for later flow cytometric studies. Flow cytometry was conducted on the BD LSR II or the BD Fortessa. Analysis was done using Flowjo (Tree Star Inc.).
# The listed concentrations of dexamethasone were added on day 6 and day 8. For the lipopolysaccharide (LPS) condition, LPS was added to a concentration of 50 ng/ml on day 9. […] “LPS” samples had LPS, but no dexamethasone.
# For these studies, dexamethasone was added on day 6 and day 8. LPS was added to a concentration of 50 ng/ml on day 9. […] “LPS” samples had LPS, but no dexamethasone.
# Jaws II cells = assay: transwell migration of Jaws II DC; format: cell-based; conditions: 10^−6 or 10^−7 M dexamethasone
# CD11c(+)CD86(+) DCs = assay: in vivo DC recruitment to subcutaneous GM-CSF loaded polymers; parameters: species or system C57BL/6J mice
# From the text: (§2) FIGS. 4A-F are graphs and images showing data on the in vivo control of DC recruitment and programming. […] Numbers in FACS plots indicate the percentage of the cell population positive for both markers. (4D) is the percentage of total cells that were positive for the DC markers CD11c and CD86, in blank (-∘-) and GM-CSF (-•-) loaded polymers as a function of time post implantation. (4E) The total number of DCs isolated from blank (-∘-) and GM-CSF (-•-) loaded polymers as a function of time post implantation. (4F) The fractional increase in CD11c(+)CD86(+) DCs isolated from polymers at day-14 after implantation in response to doses of 1000, 3000 and 7000 ng of GM-CSF as compared to the control. Scale bar—500 μm. Values in 4A, 4D, 4E, and 4F represent mean and standard deviation (n=4 or 5); * P<0.05; ** P<0.01.
# (§3) The polymer delivery vehicle presents GM-CSF in a defined spatiotemporal manner in vivo, following introduction into the tissue of interest. Exemplary vehicle quickly release approximately 60% of the bioactive GM-CSF load within the first 5 days, followed by slow and sustained release of bioactive GM-CSF over the next 10 days (FIG. 4A), to allow diffusion of the factor through the surrounding tissue and effectively recruit resident DCs. Polymers were loaded with 3 μg of GM-CSF and implanted into the dorsal subcutaneous site of C57BL/6J mice. […]
# [9] = system: bone marrow derived murine dendritic cells; assay: chemokinesis of bone marrow dendritic cells toward alginate gels, time-lapse imaging; format: cell-based; conditions: alginate gel with GM-CSF, cells followed for 8 hours
# Procedure: GM-CSF enhanced chemokinesis of bone marrow dendritic cells in vitro. Alginate gels with or without GM-CSF ([…]) were placed in a petri dish and surrounded with collagen containing bone marrow derived murine dendritic cells (FIG. 14A). The cells were followed for 8 hours using time-lapse imaging. The velocity of the cells was calculated from initial and final position values and is plotted in FIGS. 14B and C in μm/min. Chemotaxis toward the alginate is given as the positive x coordinate (positive x is directed radially inward). Each dot reflects the velocity of 1 cell, and each plot is representative of three experiments. The average migration speed of cells in the presence of GM-CSF was 3.1 μm/min compared to 1.1 μm/min in the absence of GM-CSF.
# JAWSII DCs = assay: GM-CSF effects on JAWSII DC recruitment, proliferation, emigration and activation in vitro; format: cell-based
# Procedure: FIGS. 3A-C are graphs and FIG. 3D is a set of images showing data related to the concentration dependent effects of GM-CSF on DC proliferation, recruitment, activation and emigration in vitro. […] Migration counts measured at 12 hours. (3B) is the effects of GM-CSF concentration on the proliferation of JAWSII DCs. 0 (white bar), 50 (grey bar), and 500 ng/ml (black bar) of GM-CSF. […] Migration counts taken at 6 hours. (3D) are representative photomicrographs of TNF-α and LPS stimulated JAWSII DCs cultured in 5-50 or 500 ng/ml GM-CSF and stained for the activation markers MHCII and CCR7. Scale bar in (3D)—20 μm. Values in (3A-3C) represent mean and standard deviation (n=4); * P<0.05; ** P<0.01
# High concentrations (>100 ng/ml) of GM-CSF, however, inhibited DC migration toward the LN-derived chemokine CCL19 (FIG. 3C).
# [10] = release profile of GM-CSF from polymer delivery vehicle; format: physicochemical; conditions: within the first 5 days
# From the text: as §2, §3
compound,measurement,setting,value
SPDP CSIINFEKL (SEQ ID NO: 18)-MPS: ovalbumin CD8 epitope CSIINFEKL conjugated to MPS through reducible SPDP linker (also: SPDP linker to MPS),BMDCs presenting the peptide,[1]; 10 nM,significantly better presented
same,BMDCs presenting the peptide,[1]; 100 nM,comparable levels
TSLP: thymic stromal lymphopoietin,expression of IL-6 and IL-12,[2],diminished expression
CISQAVHAAHAEINEAGR (SEQ ID NO: 19) conjugated to MPS through SPDP: ovalbumin CD4 epitope conjugated to MPS through reducible SPDP linker (also: conjugated to MPS via SPDP linker),CD4 T cell proliferation,[3],significantly higher T cell proliferation
SIINFEKL (Exemplary ovalbumin peptide.),CPRG hydrolysis versus dexamethasone-SIINFEKL groups,B3Z T cell line [4],greater CPRG hydrolysis
same,X-gal staining of B3Z cells,B3Z T cell line [5]; 0.05 μM peptide,many positive cells
same,X-gal staining of B3Z cells,B3Z T cell line [5]; 1.0 μM peptide,numerous positive cells
C[C@@H]1C[C@H]2[C@@H]3CCC4=CC(=O)C=C[C@]4(C)[C@@]3(F)[C@@H](O)C[C@]2(C)[C@@]1(O)C(=O)CO [dexamethasone],"reduction of IL-12 elaboration from BMDC, factor",BMDC [6],~4
same,MFI CD80,BMDC [7],3100 ± 100^δ
same,MFI CD86,BMDC [7],2050 ± 5^β
same,MFI MHC II,BMDC [7],540 ± 20^α
same,"dexamethasone concentrations with MHC II, CD80, CD86 staining reduced compared to LPS positive control",[8]; LPS treated,greater than or equal to 10^−8 M
same,dexamethasone concentrations that reduced CD11c expression,[8]; immature BMDC cultures,≥ 10^−8 M
same,dexamethasone concentration at which inhibition of CD11c+ staining begins,[8]; mature DC treated with LPS 50 ng/ml,around 10^−8 M
same,number of cells that migrated to CCL20 relative to control,Jaws II cells,approximately 1.8 fold
GM-CSF,CD11c(+)CD86(+) DCs by FACS,CD11c(+)CD86(+) DCs; 3 μg GM-CSF loaded polymers,"increased not just the total cell number, but also the percentage of infiltrating cells that were DCs"
same,total cellular infiltration at the site,"CD11c(+)CD86(+) DCs; 3 μg GM-CSF, day-14, compared to control",significantly enhanced
same,average migration speed of cells,[9],3.1 μm/min
same,CD11c+/CD86+ in total BM cells,[2],14.7%
same,"DC activation via TNF-α and LPS stimulation (MHCII, CCR7 expression)",JAWSII DCs; high concentrations of GM-CSF,suppressed DC activation
same,DC recruitment and proliferation,JAWSII DCs; in vitro,enhanced DC recruitment and proliferation in a dose-dependent manner
same,GM-CSF concentrations that inhibited DC migration toward CCL19,JAWSII DCs; transwell,> 100 ng/mL
same,bioactive GM-CSF load released,[10],approximately 60%
TGF-β,CD11c+/CD86+ in total BM cells,[2],10.5%
same,expression of IL-6 and IL-12,[2],diminished expression
CISQAVHAAHAEINEAGR (SEQ ID NO: 19) conjugated to MPS through SMCC: ovalbumin CD4 epitope conjugated to MPS through stable SMCC linker (also: conjugated to MPS via SMCC linker),CD4 T cell proliferation,[3],significantly higher T cell proliferation
"VIP: vasoactive intestinal peptide (HSDAVFTDNYTRLRKQMAVKKYLNSILN; ends and bridges not checked; UniProt P01282 125-152, looked up)",expression of IL-6 and IL-12,[2],diminished expression
same,IL-10 production by induced DC,"[2]; GM-CSF plus factor (100 ng/ml), 7 days, bacterial challenge",did not up-regulate
